In patent US6358885B1, “Substituted phenylheterocyclic herbicides” (Mississippi State University, priority 1992, dated 2002):

Legend:
giant foxtail [1] = assay: Test B preemergence/postemergence greenhouse plant response rating 0 to 10; assay type: in vivo, Setaria faberii; details: 0 to 10 scale
Procedure, shortened: (§1)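 Test chemicals were sprayed onto freshly planted seed and, concurrently, onto young plants between the one and four leaf stage. After a twelve- to sixteen-day greenhouse period, each species was visually compared with untreated controls.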

lambsquarters = assay: as above; assay type: in vivo, Chenopodium album; details: 0 to 10 scale
Procedure, shortened: as §1

downy brome = assay: Test C preemergence/postemergence greenhouse plant response rating 0 to 100; assay type: in vivo, Bromus tectorum; details: POSTEMERGENCE; for Plant response rating Downy Brome: 0 to 100 scale
Procedure, shortened: (§2)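 Compounds in non-phytotoxic solvent applied preemergence to sandy loam one day after planting, postemergence at the 1–4 leaf stage, or to ~2.5 cm floodwater over silt loam.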

purple nutsedge = assay: Test B preemergence/postemergence greenhouse plant response rating 0 to 10; assay type: in vivo, Cyperus rotundus; details: 0 to 10 scale
Procedure, shortened: as §1

cocklebur = assay: as above; assay type: in vivo, Xanthium pensylvanicum; details: for Plant response rating, Cocklebur: 0 to 10 scale
Procedure, shortened: as §1

wild oat [2] = assay: Test C preemergence/postemergence greenhouse plant response rating 0 to 100; assay type: in vivo, Avena fatua; details: POSTEMERGENCE; for Plant response rating, Wild oat: 0 to 100 scale
Procedure, shortened: as §2

soybean = assay: as above; assay type: in vivo, Glycine max; details: POSTEMERGENCE; for Plant response rating, Soybean: 0 to 100 scale
Procedure, shortened: as §2

barnyardgrass [3] = assay: Test C flood test plant response rating 0 to 100; assay type: in vivo, Echinochloa crus-galli; details: for Plant response rating (0 to 100), Barnyardgrass: under POSTEMERGENCE head (flood test species); for Plant response rating, Barnyardgrass: flood test species listed under POSTEMERGENCE, 0 to 100 scale
Procedure, shortened: as §2

cotton = assay: Test C preemergence/postemergence greenhouse plant response rating 0 to 100; assay type: in vivo, Gossypium hirsutum; details: POSTEMERGENCE; for Plant response rating, Cotton: 0 to 100 scale
Procedure, shortened: as §2

umbrella sedge = assay: Test C flood test plant response rating 0 to 100; assay type: in vivo, Cyperus difformis; details: for Plant response rating Umbrella sedge: flood test species listed under POSTEMERGENCE, 0 to 100 scale
Procedure, shortened: as §2

chickweed = assay: Test C preemergence/postemergence greenhouse plant response rating 0 to 100; assay type: in vivo, Stellaria media; details: POSTEMERGENCE; for Plant response rating, Chickweed: 0 to 100 scale
Procedure, shortened: as §2

rice = assay: Test C flood test plant response rating 0 to 100; assay type: in vivo, Oryza sativa; details: for Plant response rating Rice Japonica: flood test species listed under POSTEMERGENCE, 0 to 100 scale
Procedure, shortened: as §2

barnyardgrass [4] = assay: Test B preemergence/postemergence greenhouse plant response rating 0 to 10; assay type: in vivo, Echinochloa crus-galli; details: for Plant response rating, Barnyardgrass: 0 to 10 scale
Procedure, shortened: as §1

rape = assay: Test C preemergence/postemergence greenhouse plant response rating 0 to 100; assay type: in vivo, Brassica napus; details: POSTEMERGENCE; for Plant response rating, Rape: 0 to 100 scale
Procedure, shortened: as §2

wild oat [5] = assay: Test B preemergence/postemergence greenhouse plant response rating 0 to 10; assay type: in vivo, Avena fatua; details: 0 to 10 scale
Procedure, shortened: as §1

wild buckwheat = assay: as above; assay type: in vivo, Polygonum convolvulus; details: 0 to 10 scale
Procedure, shortened: as §1

giant foxtail [6] = assay: Test C preemergence/postemergence greenhouse plant response rating 0 to 100; assay type: in vivo, Setaria faberii; details: POSTEMERGENCE; for Plant response rating, Giant foxtail: 0 to 100 scale
Procedure, shortened: as §2

crabgrass = assay: Test B preemergence/postemergence greenhouse plant response rating 0 to 10; assay type: in vivo, Digitaria spp.; details: for Plant response rating, Crabgrass: 0 to 10 scale
Procedure, shortened: as §1

[7] = POSTEMERGENCE section, flood test, Rate 4 g/ha
[8] = Rate 16 g/ha, under POSTEMERGENCE head (flood test species)

COC(=O)C(C)Oc1cc(-c2nn3c(c2Cl)CCCC3)c(F)cc1Cl (centres unmarked) [Compound 28]
80: Plant response rating, Soybean (soybean; 250 g/ha) | Plant response rating, Chickweed (chickweed; 62 g/ha) | Plant response rating, Chickweed (chickweed; 250 g/ha)
40: Plant response rating (0 to 100), Downy Brome (downy brome; Rate 16 g/ha)
0: Plant response rating, Giant foxtail (giant foxtail [1]; PREEMERGENCE, Rate 50 g/ha) | Plant response rating, Nutsedge (purple nutsedge; PREEMERGENCE, Rate 50 g/ha) | Plant response rating, Nutsedge (purple nutsedge; Rate 200 g/ha, PREEMERGENCE) | Plant response rating, Cocklebur (cocklebur; PREEMERGENCE, Rate 50 g/ha) | Plant response rating (0 to 100), Soybean (soybean; Rate 4 g/ha) | Plant response rating (0 to 100), Umbrella sedge (umbrella sedge; [7]) | Plant response rating (0 to 100), Umbrella sedge (umbrella sedge; [8]) | Plant response rating (0 to 100), Rice Japonica (rice; [7]) | Plant response rating, Barnyardgrass (barnyardgrass [4]; PREEMERGENCE, Rate 50 g/ha) | Plant response rating, Crabgrass (crabgrass; PREEMERGENCE, Rate 50 g/ha)
20: Plant response rating (0 to 100), Wild oat (wild oat [2]; Rate 4 g/ha) | Plant response rating Umbrella sedge (umbrella sedge; 62 g/ha) | Plant response rating (0 to 100), Chickweed (chickweed; Rate 4 g/ha) | Plant response rating (0 to 100), Giant foxtail (giant foxtail [6]; Rate 4 g/ha)
2: Plant response rating, Nutsedge (purple nutsedge; POSTEMERGENCE, Rate 50 g/ha) | Plant response rating, Wild oat (wild oat [5]; Rate 200 g/ha, PREEMERGENCE) | Plant response rating, Crabgrass (crabgrass; Rate 200 g/ha, PREEMERGENCE)
45: Plant response rating (0 to 100), Rice Japonica (rice; [8])
85: Plant response rating Rice Japonica (rice; 250 g/ha)
95: Plant response rating, Barnyardgrass (barnyardgrass [3]; 62 g/ha)
100: Plant response rating Downy Brome (downy brome; 250 g/ha) | Plant response rating, Barnyardgrass (barnyardgrass [3]; 250 g/ha) | Plant response rating, Cotton (cotton; 62 g/ha) | Plant response rating, Cotton (cotton; 250 g/ha) | Plant response rating (0 to 100), Cotton (cotton; Rate 4 g/ha) | Plant response rating (0 to 100), Cotton (cotton; Rate 16 g/ha) | Plant response rating, Rape (rape; 62 g/ha) | Plant response rating, Rape (rape; 250 g/ha) | Plant response rating, Giant foxtail (giant foxtail [6]; 62 g/ha) | Plant response rating, Giant foxtail (giant foxtail [6]; 250 g/ha)
9: Plant response rating (0 to 10 scale), Cocklebur (cocklebur; POSTEMERGENCE, Rate 50 g/ha) | Plant response rating, Wild buckwheat (wild buckwheat; POSTEMERGENCE, Rate 50 g/ha)
35: Plant response rating (0 to 100), Barnyardgrass (barnyardgrass [3]; Rate 4 g/ha)
10: Plant response rating, Lambsquarter (lambsquarters; POSTEMERGENCE, Rate 50 g/ha) | Plant response rating, Lambsquarter (lambsquarters; POSTEMERGENCE, Rate 200 g/ha) | Plant response rating, Lambsquarter (lambsquarters; PREEMERGENCE, Rate 50 g/ha) | Plant response rating, Lambsquarter (lambsquarters; Rate 200 g/ha, PREEMERGENCE) | Plant response rating (0 to 100), Downy Brome (downy brome; Rate 4 g/ha) | Plant response rating, Cocklebur (cocklebur; POSTEMERGENCE, Rate 200 g/ha) | Plant response rating, Barnyardgrass (barnyardgrass [4]; POSTEMERGENCE, Rate 200 g/ha) | Plant response rating, Wild buckwheat (wild buckwheat; POSTEMERGENCE, Rate 200 g/ha)
50: Plant response rating, Wild oat (wild oat [2]; 62 g/ha) | Plant response rating (0 to 100), Barnyardgrass (barnyardgrass [3]; Rate 16 g/ha) | Plant response rating (0 to 100), Chickweed (chickweed; Rate 16 g/ha) | Plant response rating (0 to 100), Rape (rape; Rate 4 g/ha)
60: Plant response rating Downy Brome (downy brome; 62 g/ha) | Plant response rating (0 to 100), Giant foxtail (giant foxtail [6]; Rate 16 g/ha)
70: Plant response rating, Wild oat (wild oat [2]; 250 g/ha) | Plant response rating, Soybean (soybean; 62 g/ha) | Plant response rating Umbrella sedge (umbrella sedge; 250 g/ha) | Plant response rating (0 to 100), Rape (rape; Rate 16 g/ha)
8: Plant response rating, Giant foxtail (giant foxtail [1]; POSTEMERGENCE, Rate 200 g/ha)
6: Plant response rating, Wild oat (wild oat [5]; POSTEMERGENCE, Rate 200 g/ha) | Plant response rating, Crabgrass (crabgrass; POSTEMERGENCE, Rate 200 g/ha)
30: Plant response rating (0 to 100), Wild oat (wild oat [2]; Rate 16 g/ha) | Plant response rating (0 to 100), Soybean (soybean; Rate 16 g/ha)
1: Plant response rating, Cocklebur (cocklebur; Rate 200 g/ha, PREEMERGENCE) | Plant response rating, Barnyardgrass (barnyardgrass [4]; Rate 200 g/ha, PREEMERGENCE)
65: Plant response rating Rice Japonica (rice; 62 g/ha)
7: Plant response rating (0 to 10 scale), Barnyardgrass (barnyardgrass [4]; POSTEMERGENCE, Rate 50 g/ha) | Plant response rating, Wild buckwheat (wild buckwheat; PREEMERGENCE, Rate 50 g/ha) | Plant response rating, Wild buckwheat (wild buckwheat; Rate 200 g/ha, PREEMERGENCE)
5: Plant response rating, Giant foxtail (giant foxtail [1]; POSTEMERGENCE, Rate 50 g/ha) | Plant response rating, Giant foxtail (giant foxtail [1]; Rate 200 g/ha, PREEMERGENCE) | Plant response rating, Nutsedge (purple nutsedge; POSTEMERGENCE, Rate 200 g/ha) | Plant response rating, Wild oat (wild oat [5]; POSTEMERGENCE, Rate 50 g/ha) | Plant response rating (0 to 10 scale), Crabgrass (crabgrass; POSTEMERGENCE, Rate 50 g/ha)
